Data published in the NIST ThermoML archive (doi:10.1016/j.jct.2019.06.017).
“And” between values parts separate entries of the source, which are not always exact repeats. Identical values can stand only once.

Assay: Boiling temperature at pressure P
Conditions: Liquid, Ebulliometric method (Recirculating still)

OCCN1CCCC1 [1-(2-hydroxyethyl)pyrrolidine]
Conditions | Boiling temperature at pressure P [°C]
2.8 kPa | 87.5
4.8 kPa | 99.1
9.8 kPa | 115.7
19.8 kPa | 132.4
29.8 kPa | 144
39.8 kPa | 153.0
49.8 kPa | 159.5
59.8 kPa | 165.0
69.8 kPa | 169.5
79.8 kPa | 173.8
89.8 kPa | 176.7

CCN(CC)CCCO [3-diethylamino-1-propanol]
Conditions | Boiling temperature at pressure P [°C]
1.8 kPa | 80.8
2.8 kPa | 87.1
19.8 kPa | 132.2
22.3 kPa | 136.1
24.8 kPa | 139.0
34.8 kPa | 147.1
44.8 kPa | 154.2
54.8 kPa | 160.2
64.8 kPa | 167.0
69.8 kPa | 169.1

CN(C)CCCO [3-dimethylamino-1-propanol]
Conditions | Boiling temperature at pressure P
4.8 kPa | 79.2 °C and 79.8 °C
9.8 kPa | 95.2 °C
14.8 kPa | 105.4 °C
19.8 kPa | 112.7 °C
29.8 kPa | 123.7 °C
39.8 kPa | 132 °C
49.8 kPa | 138.5 °C
59.8 kPa | 144.1 °C
69.8 kPa | 148.6 °C
79.8 kPa | 153.2 °C
89.8 kPa | 156.8 °C
99.8 kPa | 160.6 °C

O [water]
Conditions | Boiling temperature at pressure P [°C]
9.8 kPa | 45.2
19.8 kPa | 60
29.8 kPa | 69.0
39.8 kPa | 75.8
49.8 kPa | 81.2
59.8 kPa | 86.0
69.8 kPa | 90.0
79.8 kPa | 93.6
100.1 kPa | 99.5
